Legend:
johnsongrass = test: Test C pre-/postemergence test; type: in vivo, Sorghum halepense; conditions: for Plant response rating, Johnsongrass: 31 g ai/ha, scale 0 to 100 (0 no effect, 100 complete control)
Summary of the method: (§1)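 Seeds were planted and treated preemergence with test chemical in a non-phytotoxic solvent mixture containing surfactant. Postemergence applications of the same formulation went onto plants 2 to 18 cm tall (1- to 4-leaf stage). A dash marks no test result.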

crabgrass [1] = test: Test A pre-/postemergence greenhouse test; type: in vivo, Digitaria sanguinalis; conditions: for Plant response rating, Crabgrass, Large: 0 to 100 scale where 0 is no effect and 100 is complete control; for Crabgrass, Large plant response rating: 0 to 100 scale
Summary of the method: (§2)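 Test compounds in non-phytotoxic solvent with surfactant were applied as a preemergence soil spray to seeded loam/sand pots and, concurrently, postemergence to plants at 2–10 cm, one- to two-leaf stage. About ten days in greenhouse, then injury visually rated against untreated controls.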

corn [2] = test: Test A pre-/postemergence greenhouse test; type: in vivo, Zea mays; conditions: for Plant response rating, Corn: 0 to 100 scale where 0 is no effect and 100 is complete control; for Corn plant response rating: 0 to 100 scale
Summary of the method: as §2

crabgrass [3] = test: Test C pre-/postemergence test; type: in vivo, Digitaria sanguinalis; conditions: for Plant response rating, Crabgrass, Large: 31 g ai/ha, scale 0 to 100 (0 no effect, 100 complete control)
Summary of the method: as §1

pigweed = test: Test C pre-/postemergence test; type: in vivo, Amaranthus retroflexus; conditions: for Plant response rating, Pigweed: 31 g ai/ha, scale 0 to 100 (0 no effect, 100 complete control)
Summary of the method: as §1

soybean = test: Test C pre-/postemergence test; type: in vivo, Glycine max; conditions: for Plant response rating, Soybean: 31 g ai/ha, scale 0 to 100 (0 no effect, 100 complete control)
Summary of the method: as §1

green foxtail = test: Test C pre-/postemergence test; type: in vivo, Setaria viridis; conditions: for Plant response rating, Foxtail, Green: 31 g ai/ha, scale 0 to 100 (0 no effect, 100 complete control)
Summary of the method: as §1

duck salad = test: Test C flooded paddy test; type: in vivo, Heteranthera limosa; conditions: Flood
Summary of the method: (§3)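 In-water treatment: compound dosed into 3 cm flood over soil, water level unchanged throughout. Controls run alongside; visual assessment at day 13–15.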

barnyardgrass [4] = test: Test C flooded paddy test; type: in vivo, Echinochloa crus-galli; conditions: Flood
Summary of the method: as §3

corn [5] = test: Test C pre-/postemergence test; type: in vivo, Zea mays; conditions: for Plant response rating, Corn: 31 g ai/ha, scale 0 to 100 (0 no effect, 100 complete control)
Summary of the method: as §1

velvetleaf = test: Test A pre-/postemergence greenhouse test; type: in vivo, Abutilon theophrasti; conditions: for Plant response rating, Velvetleaf: 0 to 100 scale where 0 is no effect and 100 is complete control; for Velvetleaf plant response rating: 0 to 100 scale
Summary of the method: as §2

Goosegrass = test: Test C pre-/postemergence test; type: in vivo, Eleusin indica; conditions: for Plant response rating, Goosegrass: 31 g ai/ha, scale 0 to 100 (0 no effect, 100 complete control)
Summary of the method: as §1

barnyardgrass [6] = test: Test A pre-/postemergence greenhouse test; type: in vivo, Echinochloa crus-galli; conditions: for Plant response rating, Barnyardgrass: 0 to 100 scale where 0 is no effect and 100 is complete control; for Barnyardgrass plant response rating: 0 to 100 scale
Summary of the method: as §2

Italian ryegrass = test: Test C pre-/postemergence test; type: in vivo, Lolium multiflorum; conditions: for Plant response rating, Ryegrass, Italian: 31 g ai/ha, scale 0 to 100 (0 no effect, 100 complete control)
Summary of the method: as §1

yellow nutsedge = test: Test C pre-/postemergence test; type: in vivo, Cyperus esculentus; conditions: for Plant response rating, Nutsedge, Yellow: 31 g ai/ha, scale 0 to 100 (0 no effect, 100 complete control)
Summary of the method: as §1

umbrella sedge = test: Test C flooded paddy test; type: in vivo, Cyperus difformis; conditions: Flood
Summary of the method: as §3

bermudagrass = test: Test C pre-/postemergence test; type: in vivo, Cynodon dactylon; conditions: for Plant response rating, Bermudagrass: 31 g ai/ha
Summary of the method: as §1

[7] = 62 g ai/ha, Preemergence, scale 0 to 100
[8] = 125 g ai/ha, preemergence, scale 0 (no effect) to 100 (complete control)
[9] = preemergence, 250 g ai/ha, scale 0 (no effect) to 100 (complete control)
[10] = Postemergence, 500 g ai/ha, 0 is no effect, 100 is complete control
[11] = Preemergence, 125 g ai/ha, 0 no effect, 100 complete control
[12] = 62 g ai/ha, scale 0 to 100 (0 no effect, 100 complete control)
[13] = 250 g ai/ha, scale 0 to 100, 0 no effect, 100 complete control, 13 to 15 days
[14] = 62 g ai/ha, Preemergence, scale 0 to 100 (0 no effect, 100 complete control)
[15] = Preemergence, scale 0 to 100 (0 no effect, 100 complete control)
[16] = Preemergence, 500 g ai/ha, 0 no effect, 100 complete control

C#CCOc1c(C[S+]([O-])c2cccc[n+]2[O-])c(C(F)(F)F)nn1C (stereo not shown) [Compound 76]
Johnsongrass plant response rating (johnsongrass; [7]): 95
Johnsongrass plant response rating (johnsongrass; [8]): 100
Plant response rating, Johnsongrass (johnsongrass; Preemergence): 85
Johnsongrass plant response rating (johnsongrass; [9]): 100
Plant response rating, Crabgrass, Large (crabgrass [1]; Postemergence, 125 g ai/ha): 50
Crabgrass, Large plant response rating (crabgrass [1]; [10]): 90
Crabgrass, Large plant response rating (crabgrass [1]; [11]): 80
Plant response rating, Crabgrass, Large (crabgrass [1]; Preemergence, 500 g ai/ha): 90
Plant response rating, Corn (corn [2]; Postemergence, 125 g ai/ha): 40
Corn plant response rating (corn [2]; [10]): 60
Corn plant response rating (corn [2]; [11]): 0
Plant response rating, Corn (corn [2]; Preemergence, 500 g ai/ha): 80
Crabgrass, Large plant response rating (crabgrass [3]; [7]): 85
Crabgrass, Large plant response rating (crabgrass [3]; [8]): 98
Plant response rating, Crabgrass, Large (crabgrass [3]; Preemergence): 85
Crabgrass, Large plant response rating (crabgrass [3]; [9]): 100
Pigweed plant response rating (pigweed; [7]): 80
Pigweed plant response rating (pigweed; [8]): 80
Plant response rating, Pigweed (pigweed; Preemergence): 50
Pigweed plant response rating (pigweed; [9]): 100
Soybean plant response rating (soybean; [7]): 40
Soybean plant response rating (soybean; [8]): 80
Plant response rating, Soybean (soybean; Preemergence): 0
Soybean plant response rating (soybean; [9]): 95
Foxtail, Green plant response rating (green foxtail; [7]): 100
Foxtail, Green plant response rating (green foxtail; [8]): 100
Plant response rating, Foxtail, Green (green foxtail; Preemergence): 70
Foxtail, Green plant response rating (green foxtail; [9]): 100
Plant response rating, Ducksalad (duck salad; [12]): 0
Plant response rating, Ducksalad (duck salad; [13]): 100
Plant response rating, Barnyardgrass (barnyardgrass [4]; [12]): 0
Plant response rating, Barnyardgrass (barnyardgrass [4]; [13]): 20
Corn plant response rating (corn [5]; [7]): 80
Corn plant response rating (corn [5]; [8]): 100
Plant response rating, Corn (corn [5]; Preemergence): 0
Corn plant response rating (corn [5]; [9]): 100
Plant response rating, Velvetleaf (velvetleaf; Postemergence, 125 g ai/ha): 60
Velvetleaf plant response rating (velvetleaf; [10]): 80
Velvetleaf plant response rating (velvetleaf; [11]): 50
Plant response rating, Velvetleaf (velvetleaf; Preemergence, 500 g ai/ha): 80
Goosegrass plant response rating (Goosegrass; [7]): 95
Goosegrass plant response rating (Goosegrass; [8]): 98
Plant response rating, Goosegrass (Goosegrass; Preemergence): 80
Goosegrass plant response rating (Goosegrass; [9]): 100
Plant response rating, Barnyardgrass (barnyardgrass [6]; Postemergence, 125 g ai/ha): 70
Barnyardgrass plant response rating (barnyardgrass [6]; [10]): 80
Barnyardgrass plant response rating (barnyardgrass [6]; [11]): 80
Plant response rating, Barnyardgrass (barnyardgrass [6]; Preemergence, 500 g ai/ha): 100
Ryegrass, Italian plant response rating (Italian ryegrass; [7]): 50
Ryegrass, Italian plant response rating (Italian ryegrass; [8]): 70
Plant response rating, Ryegrass, Italian (Italian ryegrass; Preemergence): 0
Ryegrass, Italian plant response rating (Italian ryegrass; [9]): 100
Nutsedge, Yellow plant response rating (yellow nutsedge; [7]): 50
Nutsedge, Yellow plant response rating (yellow nutsedge; [8]): 80
Plant response rating, Nutsedge, Yellow (yellow nutsedge; Preemergence): 0
Nutsedge, Yellow plant response rating (yellow nutsedge; [9]): 95
Plant response rating, Sedge, Umbrella (umbrella sedge; [12]): 0
Plant response rating, Sedge, Umbrella (umbrella sedge; [13]): 100
Bermudagrass plant response rating (bermudagrass; [14]): 100
Bermudagrass plant response rating (bermudagrass; [8]): 100
Plant response rating, Bermudagrass (bermudagrass; [15]): 80
Bermudagrass plant response rating (bermudagrass; [9]): 100

Cc1cc[n+]([O-])c(S(=O)(=O)Cc2c(C(F)(F)C(F)(F)F)nn(C)c2OCC(F)(F)F)c1 [Compound 99]
Johnsongrass plant response rating (johnsongrass; [7]): 90
Johnsongrass plant response rating (johnsongrass; [8]): 100
Plant response rating, Johnsongrass (johnsongrass; Preemergence): 40
Johnsongrass plant response rating (johnsongrass; [9]): 100
Plant response rating, Crabgrass, Large (crabgrass [1]; Postemergence, 125 g ai/ha): 60
Crabgrass, Large plant response rating (crabgrass [1]; [10]): 80
Crabgrass, Large plant response rating (crabgrass [1]; [11]): 80
Crabgrass, Large plant response rating (crabgrass [1]; [16]): 100
Plant response rating, Corn (corn [2]; Postemergence, 125 g ai/ha): 40
Corn plant response rating (corn [2]; [10]): 60
Corn plant response rating (corn [2]; [11]): 0
Corn plant response rating (corn [2]; [16]): 30
Crabgrass, Large plant response rating (crabgrass [3]; [7]): 100
Crabgrass, Large plant response rating (crabgrass [3]; [8]): 100
Plant response rating, Crabgrass, Large (crabgrass [3]; Preemergence): 80
Crabgrass, Large plant response rating (crabgrass [3]; [9]): 100
Pigweed plant response rating (pigweed; [7]): 100
Pigweed plant response rating (pigweed; [8]): 100
Plant response rating, Pigweed (pigweed; Preemergence): 100
Pigweed plant response rating (pigweed; [9]): 100
Soybean plant response rating (soybean; [7]): 25
Soybean plant response rating (soybean; [8]): 30
Plant response rating, Soybean (soybean; Preemergence): 0
Soybean plant response rating (soybean; [9]): 98
Foxtail, Green plant response rating (green foxtail; [7]): 80
Foxtail, Green plant response rating (green foxtail; [8]): 100
Plant response rating, Foxtail, Green (green foxtail; Preemergence): 80
Foxtail, Green plant response rating (green foxtail; [9]): 100
Plant response rating, Ducksalad (duck salad; [12]): 0
Plant response rating, Ducksalad (duck salad; [13]): 65
Plant response rating, Barnyardgrass (barnyardgrass [4]; [12]): 0
Plant response rating, Barnyardgrass (barnyardgrass [4]; [13]): 20
Corn plant response rating (corn [5]; [7]): 0
Corn plant response rating (corn [5]; [8]): 30
Plant response rating, Corn (corn [5]; Preemergence): 0
Corn plant response rating (corn [5]; [9]): 50
Plant response rating, Velvetleaf (velvetleaf; Postemergence, 125 g ai/ha): 30
Velvetleaf plant response rating (velvetleaf; [10]): 60
Velvetleaf plant response rating (velvetleaf; [11]): 20
Velvetleaf plant response rating (velvetleaf; [16]): 100
Goosegrass plant response rating (Goosegrass; [7]): 95
Goosegrass plant response rating (Goosegrass; [8]): 100
Plant response rating, Goosegrass (Goosegrass; Preemergence): 85
Goosegrass plant response rating (Goosegrass; [9]): 100
Plant response rating, Barnyardgrass (barnyardgrass [6]; Postemergence, 125 g ai/ha): 60
Barnyardgrass plant response rating (barnyardgrass [6]; [10]): 80
Barnyardgrass plant response rating (barnyardgrass [6]; [11]): 70
Barnyardgrass plant response rating (barnyardgrass [6]; [16]): 100
Ryegrass, Italian plant response rating (Italian ryegrass; [7]): 70
Ryegrass, Italian plant response rating (Italian ryegrass; [8]): 75
Plant response rating, Ryegrass, Italian (Italian ryegrass; Preemergence): 70
Ryegrass, Italian plant response rating (Italian ryegrass; [9]): 100
Nutsedge, Yellow plant response rating (yellow nutsedge; [7]): 60
Nutsedge, Yellow plant response rating (yellow nutsedge; [8]): 60
Plant response rating, Nutsedge, Yellow (yellow nutsedge; Preemergence): 0
Nutsedge, Yellow plant response rating (yellow nutsedge; [9]): 80
Plant response rating, Sedge, Umbrella (umbrella sedge; [12]): 0
Plant response rating, Sedge, Umbrella (umbrella sedge; [13]): 65
Bermudagrass plant response rating (bermudagrass; [14]): 100
Bermudagrass plant response rating (bermudagrass; [8]): 100
Plant response rating, Bermudagrass (bermudagrass; [15]): 85
Bermudagrass plant response rating (bermudagrass; [9]): 100
